According to patent publication US20260215428A1, “WEED CONTROL METHOD” (SYNGENTA CROP PROTECTION AG, priority 2023, published 2026):

What was measured:
Format in all cases: in vivo
Lolium multiflorum = assay: Glasshouse post-emergence test, visual damage, Table B1-1
Procedure: Seeds of a variety of test species are sown in standard soil in pots. For each treatment, three replicate pots containing 10-15 plants per one-inch pot were sprayed at the 2-3 leaf stage. Clethodim and Compound (Ic) were each applied at 15, 30, 60 and 120 g ai/ha. The test plants are then grown in a glasshouse under controlled conditions in a glasshouse (at 24/16° C., day/night; 14 hours light; 65% humidity) and watered twice daily. […]

Digitaria sanguinalis = assay: Glasshouse post-emergence test, visual damage, Table B1-4; details: 14 days after application
Procedure: (§1) Seeds of a variety of test species are sown in standard soil in pots. For each treatment, three replicate pots containing 10-15 plants per one-inch pot were sprayed at the 2-3 leaf stage. Clethodim and Compound (Ic) were each applied at 15, 30, 60 and 120 g ai/ha. The test plants are then grown in a glasshouse under controlled conditions in a glasshouse (at 24/16° C., day/night; 14 hours light; 65% humidity) and watered twice daily. Plants were assessed for visual damage compared to the untreated control 14 days after application (0=0% damage; 100=100% damage).

Setaria viridis = assay: Glasshouse post-emergence test, visual damage, Table B1-5; details: 14 days after application
Procedure: as §1

Digitaria insularis = assay: Further glasshouse test versus other ACCase-inhibiting herbicides, Table B2-3; details: 21 days after application
Source text: (§2) Further tests were employed to test the efficacy of a compound of Formula I versus other ACCase-inhibiting herbicides. The five main targets were Lolium multiflorum, Eleusine indica, Digitaria insularis, Sorghum halepense and Echinochloa crus-galli. Collectively, the populations contained all the major target-site resistance mutations affecting ACCase herbicides. Two L. multiflorum (LM-NTSR-1 and LM-NTSR-2) and one E. crus-galli (ECG-NTSR-1) populations were characterised exclusively by non-target-site resistance (“NTSR”). The target-site resistant L. multiflorum and E. indication populations were 100% homozygous for different ACCase mutations whilst the D. insularis, S. halepense and E. crus-galli samples contained a mixture of homozygous wild and mutant individuals at different genotypic frequencies. Additional underlying NTSR cannot be ruled out in the populations characterised by target-site resistance.
(§3) Around 50 seeds of each of the 24 weed populations were sown in 12-cm pots containing a mixture of peat and compost in a 1:1 ratio. The pots were watered, fertilised and kept in controlled glasshouse conditions set at 24° C./16 hr day, 18° C. night, 65% relative humidity, and a photon flux density of approximately 250 μmol quanta m^−2 s^−1 for Lolium multiflorum. The E. indica, D. insularis, S. halepense and E. crus-galli plants were kept in a separate glasshouse bay characterised by a 17 H photoperiod of 180 μmol m^−2 s^−1 with temperatures of 25° C. day and 19° C. night and 65% relative humidity. When the plants were at the two to four-leaf stage, they were treated with the various ACCase-inhibiting herbicides at 0, 15, 30, 60, 120 and 240 g ai ha^−1 in a spray cabinet mounted with a single mobile Teejet flat fan nozzle (11002VS) calibrated to deliver 200 L ha^−1 at 200 kPa. The L. multiflorum populations were treated by a compound of Formula Ic, clodinafop-propargyl, pinoxaden, cycloxydim and clethodim and the warm season grass weeds E. indica, D. insularis, S. halepense and E. crus-galli were sprayed with a Compound Ic and the commonly employed haloxyfop-methyl and clethodim. Three replicate pots were used per population. Plants were assessed for visual damage compared to the untreated control 21 days after application (0=0% damage; 100=100% damage).

Sorghum halepense = assay: Further glasshouse test versus other ACCase-inhibiting herbicides, Table B2-4; details: 21 days after application
Source text: as §2, §3

Echinochloa Crus-galli = assay: Further glasshouse test versus other ACCase-inhibiting herbicides, Table B2-5; details: 21 days after application
Source text: as §2, §3

CC#Cc1ccc(C2=C(OC(=O)OC)C3CCC(C3)C2=O)c(OC)c1 (stereo not drawn) [Compound Ic]
visual damage (Lolium multiflorum; biotype CC2027 (homozygous), 15 g/ha, 14 days after application): 100%
visual damage (Lolium multiflorum; biotype CC2027 (homozygous), 30 g/ha, 14 days after application): 100%
visual damage (Lolium multiflorum; biotype CC2027 (homozygous), 60 g/ha, 14 days after application): 100%
visual damage (Lolium multiflorum; biotype CC2027 (homozygous), 120 g/ha, 14 days after application): 100%
visual damage (Lolium multiflorum; biotype GG2078 (homozygous), 15 g/ha, 14 days after application): 40%
visual damage (Lolium multiflorum; biotype GG2078 (homozygous), 30 g/ha, 14 days after application): 100%
visual damage (Lolium multiflorum; biotype GG2078 (homozygous), 60 g/ha, 14 days after application): 100%
visual damage (Lolium multiflorum; biotype GG2078 (homozygous), 120 g/ha, 14 days after application): 100%
visual damage (Lolium multiflorum; biotype LL1781 (homozygous), 15 g/ha, 14 days after application): 100%
visual damage (Lolium multiflorum; biotype LL1781 (homozygous), 30 g/ha, 14 days after application): 100%
visual damage (Lolium multiflorum; biotype LL1781 (homozygous), 60 g/ha, 14 days after application): 100%
visual damage (Lolium multiflorum; biotype LL1781 (homozygous), 120 g/ha, 14 days after application): 100%
visual damage (Lolium multiflorum; biotype NN2041 (homozygous), 15 g/ha, 14 days after application): 47%
visual damage (Lolium multiflorum; biotype NN2041 (homozygous), 30 g/ha, 14 days after application): 100%
visual damage (Lolium multiflorum; biotype NN2041 (homozygous), 60 g/ha, 14 days after application): 100%
visual damage (Lolium multiflorum; biotype NN2041 (homozygous), 120 g/ha, 14 days after application): 100%
visual damage (Lolium multiflorum; biotype RR2088 (homozygous), 15 g/ha, 14 days after application): 100%
visual damage (Lolium multiflorum; biotype RR2088 (homozygous), 30 g/ha, 14 days after application): 100%
visual damage (Lolium multiflorum; biotype RR2088 (homozygous), 60 g/ha, 14 days after application): 100%
visual damage (Lolium multiflorum; biotype RR2088 (homozygous), 120 g/ha, 14 days after application): 100%
visual damage (Lolium multiflorum; biotype SS1999 (homozygous), 15 g/ha, 21 DAA): 85%
visual damage (Lolium multiflorum; biotype SS1999 (homozygous), 30 g/ha, 21 DAA): 100%
visual damage (Lolium multiflorum; biotype SS1999 (homozygous), 60 g/ha, 21 DAA): 100%
visual damage (Lolium multiflorum; biotype SS1999 (homozygous), 120 g/ha, 21 DAA): 100%
visual damage (Lolium multiflorum; biotype Sensitive, 15 g/ha, 14 days after application): 100%
visual damage (Lolium multiflorum; biotype Sensitive, 30 g/ha, 14 days after application): 100%
visual damage (Lolium multiflorum; biotype Sensitive, 60 g/ha, 14 days after application): 100%
visual damage (Lolium multiflorum; biotype Sensitive, 120 g/ha, 14 days after application): 100%
visual damage (Digitaria sanguinalis; biotype I1781L (heterozygous), 15 g/ha): 73%
visual damage (Digitaria sanguinalis; biotype I1781L (heterozygous), 30 g/ha): 90%
visual damage (Digitaria sanguinalis; biotype I1781L (heterozygous), 60 g/ha): 100%
visual damage (Digitaria sanguinalis; biotype I1781L (heterozygous), 120 g/ha): 100%
visual damage (Digitaria sanguinalis; biotype Sensitive, 15 g/ha): 90%
visual damage (Digitaria sanguinalis; biotype Sensitive, 30 g/ha): 100%
visual damage (Digitaria sanguinalis; biotype Sensitive, 60 g/ha): 100%
visual damage (Digitaria sanguinalis; biotype Sensitive, 120 g/ha): 100%
visual damage (Setaria viridis; biotype GG2078 (homozygous), 15 g/ha): 50%
visual damage (Setaria viridis; biotype GG2078 (homozygous), 30 g/ha): 73%
visual damage (Setaria viridis; biotype GG2078 (homozygous), 60 g/ha): 98%
visual damage (Setaria viridis; biotype GG2078 (homozygous), 120 g/ha): 98%
visual damage (Setaria viridis; biotype II1781 (homozygous), 15 g/ha): 70%
visual damage (Setaria viridis; biotype II1781 (homozygous), 30 g/ha): 90%
visual damage (Setaria viridis; biotype II1781 (homozygous), 60 g/ha): 98%
visual damage (Setaria viridis; biotype II1781 (homozygous), 120 g/ha): 100%
visual damage (Setaria viridis; biotype LL1781 (homozygous), 15 g/ha): 60%
visual damage (Setaria viridis; biotype LL1781 (homozygous), 30 g/ha): 90%
visual damage (Setaria viridis; biotype LL1781 (homozygous), 60 g/ha): 98%
visual damage (Setaria viridis; biotype LL1781 (homozygous), 120 g/ha): 100%
visual damage (Setaria viridis; biotype Sensitive, 15 g/ha): 87%
visual damage (Setaria viridis; biotype Sensitive, 30 g/ha): 93%
visual damage (Setaria viridis; biotype Sensitive, 60 g/ha): 100%
visual damage (Setaria viridis; biotype Sensitive, 120 g/ha): 100%
visual damage (Digitaria insularis; biotype Sensitive, 15 g/ha): 100%
visual damage (Digitaria insularis; biotype Sensitive, 30 g/ha): 100%
visual damage (Digitaria insularis; biotype Sensitive, 60 g/ha): 100%
visual damage (Digitaria insularis; biotype Sensitive, 120 g/ha): 100%
visual damage (Digitaria insularis; biotype Sensitive, 240 g/ha): 100%
visual damage (Digitaria insularis; biotype W2027C, 15 g/ha): 100%
visual damage (Digitaria insularis; biotype W2027C, 30 g/ha): 100%
visual damage (Digitaria insularis; biotype W2027C, 60 g/ha): 100%
visual damage (Digitaria insularis; biotype W2027C, 120 g/ha): 100%
visual damage (Digitaria insularis; biotype W2027C, 240 g/ha): 100%
visual damage (Sorghum halepense; biotype Sensitive, 15 g/ha): 95%
visual damage (Sorghum halepense; biotype Sensitive, 30 g/ha): 97%
visual damage (Sorghum halepense; biotype Sensitive, 60 g/ha): 100%
visual damage (Sorghum halepense; biotype Sensitive, 120 g/ha): 100%
visual damage (Sorghum halepense; biotype Sensitive, 240 g/ha): 100%
visual damage (Sorghum halepense; biotype W2027C, 15 g/ha): 65%
visual damage (Sorghum halepense; biotype W2027C, 30 g/ha): 80%
visual damage (Sorghum halepense; biotype W2027C, 60 g/ha): 98%
visual damage (Sorghum halepense; biotype W2027C, 120 g/ha): 100%
visual damage (Sorghum halepense; biotype W2027C, 240 g/ha): 100%
visual damage (Echinochloa Crus-galli; biotype Sensitive, 15 g/ha): 100%
visual damage (Echinochloa Crus-galli; biotype Sensitive, 30 g/ha): 100%
visual damage (Echinochloa Crus-galli; biotype Sensitive, 60 g/ha): 100%
visual damage (Echinochloa Crus-galli; biotype Sensitive, 120 g/ha): 100%
visual damage (Echinochloa Crus-galli; biotype Sensitive, 240 g/ha): 100%
visual damage (Echinochloa Crus-galli; biotype W2027C, 15 g/ha): 100%
visual damage (Echinochloa Crus-galli; biotype W2027C, 30 g/ha): 100%
visual damage (Echinochloa Crus-galli; biotype W2027C, 60 g/ha): 100%
visual damage (Echinochloa Crus-galli; biotype W2027C, 120 g/ha): 100%
visual damage (Echinochloa Crus-galli; biotype W2027C, 240 g/ha): 100%
visual damage (Echinochloa Crus-galli; population ECG-NTSR-1 (non-target-site resistance), 15 g/ha): 90%
visual damage (Echinochloa Crus-galli; population ECG-NTSR-1 (non-target-site resistance), 30 g/ha): 100%
visual damage (Echinochloa Crus-galli; population ECG-NTSR-1 (non-target-site resistance), 60 g/ha): 100%
visual damage (Echinochloa Crus-galli; population ECG-NTSR-1 (non-target-site resistance), 120 g/ha): 100%
visual damage (Echinochloa Crus-galli; population ECG-NTSR-1 (non-target-site resistance), 240 g/ha): 100%
